In US20240001155A1, “REVERSAL OF CELLULAR SENESCENCE BY TREATMENT WITH LOW FREQUENCY ULTRASOUND” (Mechanobiologics, Inc., priority 2022, published 2024):

Tests used:
[1] = system: Sirtuin1; assay: LFU rejuvenation of senescent cells in presence of Sirtuin1 inhibitor; assay type: cell-based, Human; conditions: HFF cells with ultrasound treatment in presence of drug; FIG. 7
Description: Passage 15-24 HFF cells were treated with ultrasound at the optimized frequency, power and duty cycle. Cell proliferation was determined by counting the number of cells at the time of seeding and 48 hours after ultrasound (US) treatment. […] In the case of P24 HFF cells, they were treated with ultrasound and incubated for 96 hours prior to trypsinization, reseeding and incubation for 48 hours. Proliferation and morphology were measured after 48 hours of incubation.
FIG. 7A is a schematic of resveratrol and EX-527 treatment, followed by ultrasound treatment and medium change. FIG. 7B is a bar graph comparing the fold change in cell number of untreated control HFF cells in presence of EX-527.
FIG. 7C is a bar graph comparing the fold change in cell number of treated P19 cells in the presence of drug. FIG. 7D is a set of images comparing the immunofluorescence staining of Sirt1 in untreated and US treated HFF cells. FIG. 7E is bar graph comparing the sirt1 expression by intensity ratio of sirt1 and DAPI. Results are shown as mean±S.D. **p value <0.02 and ‘non-significant’ p value >0.05.

[2] = system: Vero cells; assay: Proliferation (growth rate, fold change in cell number) of cells after senescence induction; assay type: cell-based, African monkey; conditions: senescence induced by the agent; 48 hours of incubation; control cells approximately eight-fold change; FIG. 1B
Description: (§1) Vero cells were treated with the stressors including 200 μM H2O2, 4 mM of sodium butyrate (SB) or 25 μM of bleomycin sulphate (BS) and incubated for 36-48 hours. After washing with PBS and then replacing growth medium with fresh medium, cells were incubated for four days to confirm the growth arrest of senescent cells. […] Four criteria were used to determine if cells were senescent; (1) cell cycle arrest by determining the growth rate, (2) Increase in cell spread area, (3) development of senescence associated secretory phonotype (SASP) in culture medium, and (4) beta-gal staining. Images of cells were captured with an Evos microscope at 10× magnification after treatment and 48 hours post treatment.
To measure growth by the increase in cell number, 15 random images were captured, then the average number of cells were determined, which was divided by the area of one frame to get the cell density (cells/cm^2). Then this seeding density was multiplied by the total area of the dish or well to obtain the total number of cells after ultrasound (US) treatment and after 48 hours of incubation. The total number of cells at 48 hours was divided by the total number of cells just after the treatment to determine the growth rate. A ratio was one would be an indication of no growth.

[3] = system: Vero cells; assay: Cell spread area after senescence induction; assay type: cell-based, African monkey; conditions: senescence induced by the agent, compared to normal control cells; FIG. 1C
Description: as §1
Senescence was detected by the beta-galactosidase senescence staining kit as per manufacturer's protocol. Briefly, sub confluent senescent cells were stained by the SA-beta galactosidase (β-gal) staining solution and incubated overnight at 37° C. The β-gal-stained cells appeared blue and were senescent cells. The percentages of β-gal positive cells were determined by counting the number of blue cells and dividing by the total number of cells. Cell spread area was determined by capturing the mages of cells with a 10× objective using an Evos microscope. Then, ImageJ software was used to calculate spread area by manually encircling the cell periphery of each cell. A minimum of 150 cells was used for the analysis. To determine the SASP activity, the senescent cells were cultured for one to three days and then supernatant was collected from each dish. This supernatant was used to culture normal cells. Development of a senescence phenotype by the normal cells in supernatant medium confirmed that senescent cells were secreting SASP.

[4] = system: platelet; conditions: risk of causing thrombocytopenia; cited from earlier work

Molecule | LFU rejuvenation of senescent cells [1] | proliferation (fold change) [2] | spread area [3] | toxicity [4]
NC(=O)C1CCCc2c1[nH]c1ccc(Cl)cc21 (stereo not shown) [EX-527] | blocked | – | – | –
CCCC(=O)[O-].[Na+] [sodium butyrate] | – | non proliferative | enlarged | –
OO [H2O2, hydrogen peroxide] | – | non proliferative | enlarged | –
COc1cccc2c1C(=O)c1c(O)c3c(c(O)c1C2=O)C[C@@](O)(C(=O)CO)C[C@@H]3O[C@H]1C[C@H](N)[C@H](O)[C@H](C)O1 [Doxorubicin] | – | non proliferative | enlarged | –
CC1(C)CCC(c2ccc(Cl)cc2)=C(CN2CCN(c3ccc(C(=O)NS(=O)(=O)c4ccc(N[C@H](CCN5CCOCC5)CSc5ccccc5)c(S(=O)(=O)C(F)(F)F)c4)cc3)CC2)C1 [ABT263] | – | – | – | dose-limiting platelet toxicity
Bleomycin Sulphate | – | non proliferative | enlarged | –
